According to ChEMBL document CHEMBL1123500, “Synthesis and antitumor activity of tropolone derivatives. 3” (1986):

system: P388; assay: Antitumor activity against P388, was determined by injecting intraperitoneally in mice, at a dose of 100 mg/kg; format: functional, Mus musculus; conditions: route intraperitoneal

Row | SMILES | T/C [%]
1 | COc1ccc(C(c2ccc(C(C)C)cc(=O)c2O)C(c2ccc(OC)cc2)c2ccc(C(C)C)cc(=O)c2O)cc1 (stereo unspecified) | 138
2 | CC(C)c1ccc(C(c2cccc3ccccc23)C(c2ccc(C(C)C)cc(=O)c2O)c2cccc3ccccc23)c(O)c(=O)c1 (stereo unspecified) | 98
3 | CC(C)c1ccc(C(c2ccc(OCc3ccccc3)cc2)c2ccc(C(C)C)cc(=O)c2O)c(O)c(=O)c1 | 152

system: P388; assay: Antitumor activity in P388 inoculated mice following 5 mg/kg i.p. administration.; format: functional, Mus musculus; conditions: route intraperitoneal

Row | SMILES | T/C [%]
4 | CC(C)c1ccc(C(c2ccc(C(c3ccc(C(C)C)cc(=O)c3O)c3ccc(C(C)C)cc(=O)c3O)cc2)c2ccc(C(C)C)cc(=O)c2O)c(O)c(=O)c1 | 107
5 | CC(C)c1ccc(C(c2ccc(OCC(=O)[O-])cc2)c2ccc(C(C)C)cc(=O)c2O)c(O)c(=O)c1.[Na+] | 109
6 | CC(C)c1ccc(C(c2ccc(O)cc2)c2ccc(C(C)C)cc(=O)c2O)c(O)c(=O)c1 | 195
7 | CC(C)c1ccc(C(c2ccccc2)c2ccc(C(C)C)cc(=O)c2O)c(O)c(=O)c1 | 188
8 | CC(C)c1ccc(C(c2ccc3c(c2)OCO3)c2ccc(C(C)C)cc(=O)c2O)c(O)c(=O)c1 | 182
9 | CC(=O)Nc1ccc(C(c2ccc(C(C)C)cc(=O)c2O)c2ccc(C(C)C)cc(=O)c2O)cc1 | 171
10 | CCOC(=O)COc1ccc(C(c2ccc(C(C)C)cc(=O)c2O)c2ccc(C(C)C)cc(=O)c2O)cc1 | 125
11 | COc1ccc(C(c2ccc(C(C)C)cc(=O)c2O)c2ccc(C(C)C)cc(=O)c2O)cc1 | 173
12 | CC(C)c1ccc(C(c2cccs2)c2ccc(C(C)C)cc(=O)c2O)c(O)c(=O)c1 | 178
13 | CC(C)c1ccc(C(c2ccc(N)cc2)c2ccc(C(C)C)cc(=O)c2O)c(O)c(=O)c1 | 138
14 | COc1cc(C(c2ccc(C(C)C)cc(=O)c2O)c2ccc(C(C)C)cc(=O)c2O)cc(OC)c1OC | 142
15 | COC(=O)c1ccc(C(c2ccc(C(C)C)cc(=O)c2O)c2ccc(C(C)C)cc(=O)c2O)cc1 | 145
16 | CC(C)c1ccc(C(c2ccc(C(C)C)cc(=O)c2O)c2cccc3ccccc23)c(O)c(=O)c1 | 180
17 | CC(C)c1ccc(C(c2ccc(-c3ccccc3)cc2)c2ccc(C(C)C)cc(=O)c2O)c(O)c(=O)c1 | 111
18 | CC(C)c1ccc(C(c2ccco2)c2ccc(C(C)C)cc(=O)c2O)c(O)c(=O)c1 | 177
19 | CC(C)c1ccc(C(c2ccc([N+](C)(C)C)cc2)c2ccc(C(C)C)cc(=O)c2O)c(O)c(=O)c1.[I-] | 102

system: P388; assay: Antitumor activity against P388, was determined by injecting intraperitoneally in mice, at a dose of 20 mg/kg; format: functional, Mus musculus; conditions: route intraperitoneal

Row | SMILES | T/C [%]
20 | CC(C)c1ccc(C(c2ccc(C(c3ccc(C(C)C)cc(=O)c3O)c3ccc(C(C)C)cc(=O)c3O)cc2)c2ccc(C(C)C)cc(=O)c2O)c(O)c(=O)c1 | 100
21 | CC(C)c1ccc(C(c2ccc(C(=O)O)cc2)c2ccc(C(C)C)cc(=O)c2O)c(O)c(=O)c1 | 0
22 | CC(C)c1ccc(C(c2ccc3c(c2)OCO3)c2ccc(C(C)C)cc(=O)c2O)c(O)c(=O)c1 | 186
23 | CC(=O)Nc1ccc(C(c2ccc(C(C)C)cc(=O)c2O)c2ccc(C(C)C)cc(=O)c2O)cc1 | 0
24 | CCOC(=O)COc1ccc(C(c2ccc(C(C)C)cc(=O)c2O)c2ccc(C(C)C)cc(=O)c2O)cc1 | 0
25 | CC(C)c1ccc(C(c2ccc(OCc3ccccc3)cc2)c2ccc(C(C)C)cc(=O)c2O)c(O)c(=O)c1 | 101
26 | CC(C)c1ccc(C(c2ccc(N)cc2)c2ccc(C(C)C)cc(=O)c2O)c(O)c(=O)c1 | 147
27 | COc1cc(C(c2ccc(C(C)C)cc(=O)c2O)c2ccc(C(C)C)cc(=O)c2O)cc(OC)c1OC | 162
28 | COC(=O)c1ccc(C(c2ccc(C(C)C)cc(=O)c2O)c2ccc(C(C)C)cc(=O)c2O)cc1 | 0
29 | CC(C)c1ccc(C(c2ccc(C(C)C)cc(=O)c2O)c2cccc3ccccc23)c(O)c(=O)c1 | 178
30 | CC(C)c1ccc(C(c2ccc(-c3ccccc3)cc2)c2ccc(C(C)C)cc(=O)c2O)c(O)c(=O)c1 | 127
31 | CC(C)c1ccc(C(c2ccc([N+](C)(C)C)cc2)c2ccc(C(C)C)cc(=O)c2O)c(O)c(=O)c1.[I-] | 91

system: P388; assay: Antitumor activity against P388, was determined by injecting intraperitoneally in mice, at a dose of 1.3 mg/kg; format: functional, Mus musculus; conditions: route intraperitoneal

Row | SMILES | T/C [%]
32 | CC(C)c1ccc(C(c2ccc(O)cc2)c2ccc(C(C)C)cc(=O)c2O)c(O)c(=O)c1 | 139
33 | CC(C)c1ccc(C(c2ccccc2)c2ccc(C(C)C)cc(=O)c2O)c(O)c(=O)c1 | 132
34 | CC(C)c1ccc(C(c2ccc(C(=O)O)cc2)c2ccc(C(C)C)cc(=O)c2O)c(O)c(=O)c1 | 124
35 | CC(C)c1ccc(C(c2ccco2)c2ccc(C(C)C)cc(=O)c2O)c(O)c(=O)c1 | 132

system: not listed separately; assay: In vitro inhibition of KB cell growth.; format: functional, Homo sapiens; conditions: not given

Row | SMILES | Activity [µg/mL]
36 | CC(C)c1ccc(C(c2ccc(C(c3ccc(C(C)C)cc(=O)c3O)c3ccc(C(C)C)cc(=O)c3O)cc2)c2ccc(C(C)C)cc(=O)c2O)c(O)c(=O)c1 | 100
37 | CC(C)c1ccc(C(c2ccc(OCC(=O)[O-])cc2)c2ccc(C(C)C)cc(=O)c2O)c(O)c(=O)c1.[Na+] | 2.6
38 | CC(C)c1ccc(C(c2ccc(O)cc2)c2ccc(C(C)C)cc(=O)c2O)c(O)c(=O)c1 | <0.3
39 | COc1ccc(C(c2ccc(C(C)C)cc(=O)c2O)C(c2ccc(OC)cc2)c2ccc(C(C)C)cc(=O)c2O)cc1 (stereo unspecified) | 5.2
40 | CC(C)c1ccc(C(c2ccccc2)c2ccc(C(C)C)cc(=O)c2O)c(O)c(=O)c1 | <0.3
41 | CC(C)c1ccc(C(c2ccc(C(=O)O)cc2)c2ccc(C(C)C)cc(=O)c2O)c(O)c(=O)c1 | 0.5
42 | CC(C)c1ccc(C(c2ccc3c(c2)OCO3)c2ccc(C(C)C)cc(=O)c2O)c(O)c(=O)c1 | 0.5
43 | CC(=O)Nc1ccc(C(c2ccc(C(C)C)cc(=O)c2O)c2ccc(C(C)C)cc(=O)c2O)cc1 | <0.3
44 | CC(C)c1ccc(C(c2cccc3ccccc23)C(c2ccc(C(C)C)cc(=O)c2O)c2cccc3ccccc23)c(O)c(=O)c1 (stereo unspecified) | <100
45 | COc1ccc(C(c2ccc(C(C)C)cc(=O)c2O)c2ccc(C(C)C)cc(=O)c2O)cc1 | <0.3
46 | CC(C)c1ccc(C(c2cccs2)c2ccc(C(C)C)cc(=O)c2O)c(O)c(=O)c1 | 0.6
47 | CC(C)c1ccc(C(c2ccc(OCc3ccccc3)cc2)C(c2ccc(OCc3ccccc3)cc2)c2ccc(C(C)C)cc(=O)c2O)c(O)c(=O)c1 (stereo unspecified) | <100
48 | CC(C)c1ccc(C(c2ccc(OCc3ccccc3)cc2)c2ccc(C(C)C)cc(=O)c2O)c(O)c(=O)c1 | 4.65
49 | COc1cc(C(c2ccc(C(C)C)cc(=O)c2O)c2ccc(C(C)C)cc(=O)c2O)cc(OC)c1OC | <0.3
50 | COC(=O)c1ccc(C(c2ccc(C(C)C)cc(=O)c2O)c2ccc(C(C)C)cc(=O)c2O)cc1 | 0.5
51 | CC(C)c1ccc(C(c2ccc(C(C)C)cc(=O)c2O)c2cccc3ccccc23)c(O)c(=O)c1 | 2.6
52 | CC(C)c1ccc(C(c2ccc(-c3ccccc3)cc2)c2ccc(C(C)C)cc(=O)c2O)c(O)c(=O)c1 | 2.5
53 | CC(C)c1ccc(C(c2ccc([N+](C)(C)C)cc2)c2ccc(C(C)C)cc(=O)c2O)c(O)c(=O)c1.[I-] | 2.5

system: P388; assay: Antitumor activity against P388, was determined by injecting intraperitoneally in mice, at a dose of 2.5 mg/kg; format: functional, Mus musculus; conditions: route intraperitoneal

Row | SMILES | T/C [%]
54 | CC(C)c1ccc(C(c2ccccc2)c2ccc(C(C)C)cc(=O)c2O)c(O)c(=O)c1 | 150
55 | CC(C)c1ccc(C(c2ccc(C(=O)O)cc2)c2ccc(C(C)C)cc(=O)c2O)c(O)c(=O)c1 | 154
56 | COc1ccc(C(c2ccc(C(C)C)cc(=O)c2O)c2ccc(C(C)C)cc(=O)c2O)cc1 | 134
57 | CC(C)c1ccc(C(c2ccco2)c2ccc(C(C)C)cc(=O)c2O)c(O)c(=O)c1 | 142

system: P388; assay: Antitumor activity against P388, was determined by injecting intraperitoneally in mice, at a dose of 200 mg/kg; format: functional, Mus musculus; conditions: route intraperitoneal

Row | SMILES | T/C [%]
58 | COc1ccc(C(c2ccc(C(C)C)cc(=O)c2O)C(c2ccc(OC)cc2)c2ccc(C(C)C)cc(=O)c2O)cc1 (stereo unspecified) | 140
59 | CC(C)c1ccc(C(c2cccc3ccccc23)C(c2ccc(C(C)C)cc(=O)c2O)c2cccc3ccccc23)c(O)c(=O)c1 (stereo unspecified) | 96

system: P388; assay: Antitumor activity against P388, was determined by injecting intraperitoneally in mice, at a dose of 50 mg/kg; format: functional, Mus musculus; conditions: route intraperitoneal

Row | SMILES | T/C [%]
60 | CC(C)c1ccc(C(c2ccc(OCc3ccccc3)cc2)c2ccc(C(C)C)cc(=O)c2O)c(O)c(=O)c1 | 148

system: P388; assay: Antitumor activity against P388, was determined by injecting intraperitoneally in mice, at a dose of 5 mg/kg; conditions: route intraperitoneal

Row | SMILES | T/C [%]
61 | CC(C)c1ccc(C(c2cccs2)c2ccc(C(C)C)cc(=O)c2O)c(O)c(=O)c1 | 178

system: P388; assay: Antitumor activity against P388, was determined by injecting intraperitoneally in mice, at a dose of 10 mg/kg; format: functional, Mus musculus; conditions: route intraperitoneal

Row | SMILES | T/C [%]
62 | CCOC(=O)COc1ccc(C(c2ccc(C(C)C)cc(=O)c2O)c2ccc(C(C)C)cc(=O)c2O)cc1 | 0
63 | COc1ccc(C(c2ccc(C(C)C)cc(=O)c2O)c2ccc(C(C)C)cc(=O)c2O)cc1 | 170

system: P388; assay: Antitumor activity against P388, was determined by injecting intraperitoneally in mice, at a dose of 400 mg/kg; format: functional, Mus musculus; conditions: route intraperitoneal

Row | SMILES | T/C [%]
64 | COc1ccc(C(c2ccc(C(C)C)cc(=O)c2O)C(c2ccc(OC)cc2)c2ccc(C(C)C)cc(=O)c2O)cc1 (stereo unspecified) | 139
65 | CC(C)c1ccc(C(c2cccc3ccccc23)C(c2ccc(C(C)C)cc(=O)c2O)c2cccc3ccccc23)c(O)c(=O)c1 (stereo unspecified) | 95

system: P388; assay: Antitumor activity in P388 inoculated mice following 10 mg/kg i.p. administration.; format: functional, Mus musculus; conditions: route intraperitoneal

Row | SMILES | T/C [%]
66 | CC(C)c1ccc(C(c2ccc(C(c3ccc(C(C)C)cc(=O)c3O)c3ccc(C(C)C)cc(=O)c3O)cc2)c2ccc(C(C)C)cc(=O)c2O)c(O)c(=O)c1 | 105
67 | CC(C)c1ccc(C(c2ccc(OCC(=O)[O-])cc2)c2ccc(C(C)C)cc(=O)c2O)c(O)c(=O)c1.[Na+] | 0
68 | CC(C)c1ccc(C(c2ccc(O)cc2)c2ccc(C(C)C)cc(=O)c2O)c(O)c(=O)c1 | 0
69 | CC(C)c1ccc(C(c2ccccc2)c2ccc(C(C)C)cc(=O)c2O)c(O)c(=O)c1 | 0
70 | CC(C)c1ccc(C(c2ccc(C(=O)O)cc2)c2ccc(C(C)C)cc(=O)c2O)c(O)c(=O)c1 | 139
71 | CC(C)c1ccc(C(c2ccc3c(c2)OCO3)c2ccc(C(C)C)cc(=O)c2O)c(O)c(=O)c1 | 193
72 | CC(=O)Nc1ccc(C(c2ccc(C(C)C)cc(=O)c2O)c2ccc(C(C)C)cc(=O)c2O)cc1 | 128
73 | COc1ccc(C(c2ccc(C(C)C)cc(=O)c2O)c2ccc(C(C)C)cc(=O)c2O)cc1 | 170
74 | CC(C)c1ccc(C(c2cccs2)c2ccc(C(C)C)cc(=O)c2O)c(O)c(=O)c1 | 57
75 | CC(C)c1ccc(C(c2ccc(N)cc2)c2ccc(C(C)C)cc(=O)c2O)c(O)c(=O)c1 | 147
76 | COc1cc(C(c2ccc(C(C)C)cc(=O)c2O)c2ccc(C(C)C)cc(=O)c2O)cc(OC)c1OC | 151
77 | COC(=O)c1ccc(C(c2ccc(C(C)C)cc(=O)c2O)c2ccc(C(C)C)cc(=O)c2O)cc1 | 128
78 | CC(C)c1ccc(C(c2ccc(C(C)C)cc(=O)c2O)c2cccc3ccccc23)c(O)c(=O)c1 | 178
79 | CC(C)c1ccc(C(c2ccc(-c3ccccc3)cc2)c2ccc(C(C)C)cc(=O)c2O)c(O)c(=O)c1 | 138
80 | CC(C)c1ccc(C(c2ccco2)c2ccc(C(C)C)cc(=O)c2O)c(O)c(=O)c1 | 0
81 | CC(C)c1ccc(C(c2ccc([N+](C)(C)C)cc2)c2ccc(C(C)C)cc(=O)c2O)c(O)c(=O)c1.[I-] | 95
